Results: patent US10946053B2, “Composition containing mixed extract of mulberry and Poria cocos bark for preventing, improving or treating neurodegenerative disorders” (NeuroBo Pharmaceuticals, Inc., priority 2014, dated 2021)

Legend:
[1] = test system: NeuN, a neural cell marker; experiment: Immunohistochemical staining with NeuN in hippocampus, Aβ infusion model (FIG. 1); type: in vivo, ICR mice
Procedure: (§1) Six-week-old ICR mice were used in the experiment. The animals were anesthetized, fixed in a stereotaxic apparatus (Stoelting) and injected with 3 μl of vehicle (artificial CSF) or Aβ42 for 6 minutes using a Hamilton micro syringe (fitted with a 26-gauge needle).
(§2) Animals treated with Aβ42 were randomly divided into experimental groups. From 2 days after administration of Aβ42, the experimental drug and the positive control drug were administered once a day for 11 days.
For immunohistochemical staining, the Aβ infusion animal described in Experimental Example 1-1 was perfused with 1×PBS (phosphate buffered saline), fixed with 4% paraformaldehyde, and brain was extracted. This was fixed in the same solution for one day and stored in a 30% sucrose solution and the solution was changed every two days until frozen at […] After that, brain tissue was frozen sufficiently at −20° C. by dropping OCT (optimal cutting temperature) compound in a cryostat, and then made into a 30 μm-thick section, and stored at 4° C. in a preservative solution. Immunohistochemical staining was performed with the hippocampus portion. […]

[2] = test system: Scopolamine Induced Memory Impairment Model; experiment: Novel object recognition (NOR) task, scopolamine model; type: in vivo, ICR mice; conditions: extracts 100 mg/kg, Donepezil 1 mg/kg, test session
Procedure: (§3) Six-week-old ICR mice were used for the experiment and each experimental group consisted of 8 animals.
(§4) Normal animals were injected with the same amount of physiological saline. Behavioral studies were performed after 30 minutes of scopolamine administration.
(§5) The lyophilized drug, comparative drug and control drug were suspended in 3% HPMC aqueous solution, and all the drugs were prepared on the day of the experiment.
(§6) Inside a black box of 45 cm width, 45 cm length, 50 cm height, two plastic objects of the same size but different shapes were placed. The experimental animals were allowed to move freely for 8 minutes and the time spent on each object was measured (training session) 24 hours later, the experimental animals were placed in a box with one familiar object and one new object in the training session and the time spent in each object was measured (test session). The recorded values were calculated using the following equation (2), which is expressed as a recognition result of a new object. Recognition rate of new objects (%)=Time spent on new objects/(Time spent on new objects+Time spent on experienced objects)×100 [Equation 2]

[3] = test system: Scopolamine Induced Memory Impairment Model; experiment: Y-maze test, scopolamine model; type: in vivo, ICR mice; conditions: extracts 100 mg/kg, Donepezil 1 mg/kg
Procedure: as §3, §4, §5
(§7) The Y-maze experiment was conducted to investigate the effect of short-term memory. The animals were placed on one arm of the Y-maze and allowed to move freely for 8 minutes. Spontaneous alternation and total number of entries were measured. When the animals were consecutively entered into three arms, they were defined as alternation entry, and the ratio was calculated by the following equation 1. Spontaneous alternation ratio (%)=[(number of changes)/(total number of arm entry−2)]×100 [Equation 1]

[4] = test system: human Tau [pS199]; experiment: Phosphorylated tau in neuronal cell line (ELISA), Aβ42 treated; type: cell-based; conditions: Donepezil 10 μM
Procedure: Phosphorylated tau levels were measured in order to confirm the inhibitory effect of crude herbal extracts on tau hyper-phosphorylation. […] The phosphorylated tau was measured using human Tau [pS199] enzyme-linked immunosorbent assay (ELISA) KIT purchased from Invitrogen.

[5] = test system: beta-nerve growth factor; experiment: NGF level measurement in nerve cell line (ELISA); type: cell-based, human; conditions: extracts 10 μg/ml, Donepezil 10 μM
Procedure: NGF levels were measured in order to determine the mechanism of cognitive improvement of the herbal mixed extracts. […] NGF levels were measured using a beta-nerve growth factor human enzyme-linked immunosorbent assay (ELISA) KIT purchased from Abcam.

[6] = test system: Aβ Infusion Model (Aβ42); experiment: Passive avoidance task, Aβ42 administration model; type: in vivo, ICR mice; conditions: Aβ42 injected, once a day for 11 days, extracts 100 mg/kg, Donepezil 1 mg/kg
Procedure: as §1, §2, §5
Passive avoidance experiments were performed in two independently separated bright and dark square boxes. Bright areas (20×20×20 cm) were illuminated with 50 W incandescent lamps. Light and dark areas (20×20×20 cm) were spaced 1 cm apart and 2 mm stainless steel rods were installed. […]
(§8) Acquisition trials were conducted 24 hours later. […] The time that the animals entered the dark zone was measured.
(§9) After performing the acquisition trials and giving a 24-hour rest period, the experimental animals were placed in a bright area for measuring the retention trial and the time until entering the dark area was measured. […]

[7] = test system: Aβ Infusion Model (Aβ42); experiment: Y-maze test, Aβ42 administration model; type: in vivo, ICR mice; conditions: extracts 100 mg/kg, Donepezil 1 mg/kg
Procedure: as §1, §2, §5, §7

[8] = test system: Scopolamine Induced Memory Impairment Model; experiment: Passive avoidance task, scopolamine induced memory impairment model; type: in vivo, ICR mice; conditions: scopolamine 1 mg/kg i.p., oral, extracts 100 mg/kg, Donepezil 1 mg/kg
Procedure: as §3, §4, §5
Passive avoidance experiments were performed in two independently separated bright and dark square boxes. Bright areas (20×20×20 cm) were illuminated with 50 W incandescent lamps. Light and dark areas (20×20×20 cm) were spaced 1 cm apart and 2 mm stainless steel rods were installed.
In the habituation phase, the two sections were separated by a guillotine door (5×5 cm), and the guillotine door was opened after 30 seconds after placing the experimental animals in the light section. The animals were allowed to freely navigate. When they reached the dark area, the guillotine door was closed and the animals were taken out after 3 seconds.
as §8, §9

[9] = test system: Aβ Infusion Model (Aβ42); experiment: Novel object recognition (NOR) task, Aβ42 administration model; type: in vivo, ICR mice; conditions: extracts 100 mg/kg, Donepezil 1 mg/kg
Procedure: as §5, §6

COc1cc2c(cc1OC)C(=O)C(CC1CCN(Cc3ccccc3)CC1)C2 (stereo not shown) [Donepezil]
NeuN expression / neuroprotective effect (FIG. 1), in words [1]: failed to show neuroprotective effects | Familiar object recognition time [2]: 7.9 | New object recognition time [2]: 12.9 | Total object recognition time [2]: 20.8 | spontaneous alternation (%) [3]: 67.2% | Total number of entries ([3]; 8 minutes): 64 | True enter ([3]; 8 minutes): 43 | inhibitory effect on tau phosphorylation, in words ([4]; SH-SY5Y cells, Aβ42): did not show any inhibitory effect | Phosphorus tau pg/g protein ([4]; differentiated SH-SY5Y cells, Aβ42 48 hours, extracts 10 μg/ml): 1699 pg/g protein | effect of promoting NGF production in nerve cell line, in words ([5]; SH-SY5Y cells): did not show the effect of promoting NGF production | NGF (pg/g protein) ([5]; differentiated SH-SY5Y cells): 421 pg/g protein | Acquisition time ([6]; acquisition trial): 78.4 | Retention time ([6]; retention trial): 244.2 | spontaneous alternation (%) [7]: 70.5% | Total number of entries ([7]; 8 minutes): 61 | True enter ([7]; 8 minutes): 43 | Retention time ([8]; retention trial 24 h after acquisition): 243.5 | Acquisition time ([8]; time to enter dark area, acquisition trial): 77.4 | Total object recognition on time [9]: 26.8
